Assay results from US20230114357A1, “CONTINUOUS MELT-COATING OF ACTIVE PHARMACEUTICAL INGREDIENTS USING SURFACTANTS FOR DISSOLUTION ENHANCEMENT” (Rutgers,The State University of New Jersey, priority 2020, published 2023).
Converted amounts (≈) assume the structure as drawn. One block for each compound: values may come before it.

How the values were obtained:
[1] = Powder bulk density of ibuprofen / 10% P407 powders; format: physicochemical; settings: ibuprofen combined with 10% Poloxamer 407, not subjected to heat and shear
Description: The screw configurations are shown below, where “C” represents conveying elements and “K” represents kneading elements: For each experiment, mean residence time, powder temperature, and powder bulk density were measured.

[2] = 50 mg powder, 10% cetylpyridinium chloride, 100 rpm, 900 ml deionized water; FIG. 7
Description: Dissolution testing was performed on the following materials used or prepared herein in order to determine the percentage of carbamazepine released over time: • 10% cetylpyridinium chloride Treated • 10% cetylpyridinium chloride Physical Mix • Carbamazepine, no surfactant
In each test, 50 mg of powder was added to a dissolution vessel, and dissolution was conducted using the USP paddle method at 100 rpm in 900 ml of a buffer medium of deionized water.

[3] = physchem; settings: pH 1.8, simulated gastric fluid
Description: (§1) For each test, 12 mg of powder was added to a dissolution vessel, and dissolution was conducted using the USP paddle method at 75 rpm in 900 ml of a buffer medium comprising 0.02 M hydrochloric acid and having a pH of 1.8.
(§2) In each test, 12 mg of powder was added to a dissolution vessel, and dissolution was conducted using the USP paddle method at 75 rpm in 900 ml of a buffer medium comprising 0.02 M hydrochloric acid and having a pH of 1.8.

[4] = Dissolution testing of ibuprofen/poloxamer powders (USP paddle method); format: physicochemical; settings: 12 mg powder, 75 rpm, 900 ml 0.02 M hydrochloric acid pH 1.8; Ibuprofen 1, 2, 3; FIGS. 2-4
Description: as §1

[5] = Dissolution testing of ibuprofen/polyoxyethylene stearate powders (USP paddle method); format: physicochemical; settings: 12 mg powder, Ibuprofen 2, 10% polyoxyethylene stearate, 75 rpm, 900 ml 0.02 M hydrochloric acid pH 1.8; FIG. 6
Description: as §2

Powder Bulk Density of 10% P407 Physical Mix [1]: 0.320 g/ml
SMILES: CC(C)Cc1ccc(C(C)C(=O)O)cc1 (stereo not shown) [Ibuprofen 1, ibuprofen]

Powder Bulk Density of 10% P407 Physical Mix [1]: 0.374 g/ml
SMILES: CC(C)Cc1ccc(C(C)C(=O)O)cc1 (stereo not shown) [Ibuprofen 2, ibuprofen]

Powder Bulk Density of 10% P407 Physical Mix [1]: 0.382 g/ml
SMILES: CC(C)Cc1ccc(C(C)C(=O)O)cc1 (stereo not shown) [Ibuprofen 3, ibuprofen]

SMILES: NC(=O)N1c2ccccc2C=Cc2ccccc21 [Uncoated carbamazepine, carbamazepine]
dissolution rate (percentage of carbamazepine released over time) [2]: poorest dissolution rate

solubility [3]: 53 µg/mL (≈ 257 µM)
dissolution rate (percentage of ibuprofen released over time) [4]: slowest dissolution rate
dissolution rate (percentage of ibuprofen released over time) [5]: poorest dissolution rate
SMILES: CC(C)Cc1ccc(C(C)C(=O)O)cc1 (stereo not shown) [Uncoated ibuprofen, ibuprofen]
